Reference: PMC9779571, “Guanidine Derivatives Containing the Chalcone Skeleton Are Potent Antiproliferative Compounds against Human Leukemia Cells” (International Journal of Molecular Sciences, 2022)
Values joined by “and” are separate entries in the source; they are usually repeats but may differ in a detail not shown here. Equal entries are not always repeated.

Columns and labels:
[1] = tested on: human peripheral blood mononuclear cells (PBMC); test: Cell viability of quiescent and PHA-activated PBMC; assay type: cell-based; conditions: up to 10 µM, 24 h
Text: U-937, HL-60, MOLT-3, NALM-6, and SK-MEL-1 cells were from DSMZ (German Collection of Microorganisms and Cell Cultures, Braunschweig, Germany). U-937/Bcl-2 cells were kindly provided by Dr. Jacqueline Bréard (INSERM U749, Faculté de Pharmacie Paris-Sud, Châtenay-Malabry, France). The U-937 is a pro-monocytic, human promyelocytic leukemia cell line that was isolated from a histiocytic lymphoma. HL-60 is a human acute myeloid leukemia cell line. MOLT-3 is a human acute lymphoblastic leukemia cell line. NALM-6 is a human B cell precursor leukemia. SK-MEL-1 is a human melanoma cell line growing singly or in clumps (occasional giant, polynucleated cell) in suspension. […] The cytotoxicity of the synthetic compounds was evaluated by colorimetric 3-(4,5-dimethyl-2-thiazolyl-)-2,5-diphenyl-2H-tetrazolium bromide (MTT) assay as previously described. […] Sodium dodecyl sulfate (10% w/v) in 0.05 M HCl was added to solubilize the reaction products and the absorbance was measured at 570 nm with a reference wavelength of […] using an ELISA reader (Bio-Rad, Hercules, CA, USA). […]
Figure 2 (a) Dose-response study of hybrid chalcone–guanidines on human U-937 leukemia cell viability. Cells were cultured in the presence of increasing concentrations of selected guanidines for 72 h, and thereafter cell viability was determined by the MTT assay. […]

U-937 leukemia cells = test: Cell cycle and sub-G1 analysis by flow cytometry (propidium iodide); assay type: cell-based, human; conditions: 24 h; for fold increase of sub-G1 cells over control / %G1 / %G2-M / %S / %Sub-G1: 10 µM; for fold increase of sub-G1 cells over control: U-937; for %G1 / %G2-M / %S / %Sub-G1: U-937, means ± S.E.; for cell cycle arrest: U-937, 10 µM
Method: Cells (2.5 × 10^5) were centrifuged for 10 min at 500× g, washed with cold PBS, fixed with ice-cold 75% ethanol and stored at −20 °C overnight. Samples were then centrifuged at 500× g for 10 min at 4 °C, washed with PBS, resuspended in 200 μL of PBS containing 100 μg/mL RNase and 50 μg/mL propidium iodide and incubated for 1 h in the dark. The DNA content was analyzed by flow cytometry with a BD FACSVerse^TM cytometer (BD Biosciences, San Jose, CA, USA). Apoptosis was also evaluated by flow cytometric analysis of double-staining annexin V-FITC and propidium iodide cells as previously described.

SK-MEL-1 cells = test: MTT cytotoxicity assay, SK-MEL-1; assay type: cell-based, human; conditions: means ± SEM
Text: (§1) U-937, HL-60, MOLT-3, NALM-6, and SK-MEL-1 cells were from DSMZ (German Collection of Microorganisms and Cell Cultures, Braunschweig, Germany). U-937/Bcl-2 cells were kindly provided by Dr. Jacqueline Bréard (INSERM U749, Faculté de Pharmacie Paris-Sud, Châtenay-Malabry, France). The U-937 is a pro-monocytic, human promyelocytic leukemia cell line that was isolated from a histiocytic lymphoma. HL-60 is a human acute myeloid leukemia cell line. MOLT-3 is a human acute lymphoblastic leukemia cell line. NALM-6 is a human B cell precursor leukemia. SK-MEL-1 is a human melanoma cell line growing singly or in clumps (occasional giant, polynucleated cell) in suspension. Cells were cultured in RPMI 1640 medium containing 10% (v/v) heat-inactivated fetal bovine serum, 100 μg/mL streptomycin, and 100 U/mL penicillin, incubated at 37 °C in a humidified atmosphere containing 5% CO2 as described. The doubling times of the cell lines were 24 h in HL-60, 30 h in U-937, U-937/Bcl-2, 40 h in MOLT-3 and NALM-6, and several days in SK-MEL-1 cells. Human peripheral blood mononuclear cells (PBMC) were isolated from heparin-anticoagulated blood of healthy volunteers by centrifugation with Ficoll-Paque Plus (GE Healthcare Bio-Sciences AB, Uppsala, Sweden). PBMC were also stimulated with phytohemagglutinin (2 µg/mL) for 48 h before the experimental treatment. The trypan blue exclusion method was used for counting the cells by a hemocytometer with 95% viability in all the experiments. Compounds were dissolved in dimethyl sulfoxide (DMSO) and kept under dark conditions at 25 °C. […] The cytotoxicity of the synthetic compounds was evaluated by colorimetric 3-(4,5-dimethyl-2-thiazolyl-)-2,5-diphenyl-2H-tetrazolium bromide (MTT) assay as previously described. Briefly, cells (5000 per well) were incubated with increasing concentrations of compounds for 72 h into a 96-well plate. Then, the supernatants were removed and 0.5 mg/mL MTT was added and incubated for 4 h at 37 °C. Sodium dodecyl sulfate (10% w/v) in 0.05 M HCl was added to solubilize the reaction products and the absorbance was measured at 570 nm with a reference wavelength of […] using an ELISA reader (Bio-Rad, Hercules, CA, USA). The IC50 values (concentrations inducing a 50% inhibition of cell viability) were determined graphically for each experiment by a nonlinear regression using the curve fitting routine implemented within the software Prism 5.0 (GraphPad, La Jolla, CA, USA).

NALM-6 cells = test: MTT cytotoxicity assay, NALM-6; assay type: cell-based, human; conditions: 72 h, MTT, means ± SEM
Text: as §1

Question: For Cc1ccc(S(=O)(=O)NC(=Nc2ccc(/C=C/C(=O)c3c(O)cccc3OCc3ccccc3)cc2)N2CCN(C)CC2)cc1 [Compound 6f], which “cytotoxicity against proliferating and quiescent lymphocytes (PBMC) versus U-937” value [1] is on record?
Answer: The value was “lower cytotoxicity”.

Question: What about the “fold increase of sub-G1 cells over control” value (U-937 leukemia cells) of the same molecule?
Answer: The value was ~ 10 fold.

Question: What about the “%G1” value (U-937 leukemia cells) of the same molecule?
Answer: The value was 35.2 ± 3.8 %.

Question: And the “%G2-M” value (U-937 leukemia cells)?
Answer: The value was 10.8 ± 1.6%.

Question: And the “%S” value (U-937 leukemia cells)?
Answer: Its value is 28.3 ± 0.2%.

Question: And the “%Sub-G1” value (U-937 leukemia cells)?
Answer: The value was 25.1% and 25.1 ± 2.6 %.

Question: What about the cell cycle arrest (U-937 leukemia cells) of the same molecule?
Answer: The cell cycle arrest was “not caused by a significant cell cycle arrest in any phase”.

Question: What about the IC50 (SK-MEL-1 cells; Homo sapiens, SK-MEL-1, 72 h) of the same molecule?
Answer: Its IC50 is 4.5 ± 0.4 µM.

Question: And the IC50 (NALM-6 cells; Homo sapiens, NALM-6, 72 h)?
Answer: Its IC50 is 2.7 µM.

Question: For O=C(/C=C/c1ccc(N=C(Nc2ccccc2)N2CCCCC2)cc1)c1c(O)cccc1OCc1ccccc1 [Compound 6i], which “cytotoxicity against proliferating and quiescent lymphocytes (PBMC) versus U-937” value [1] is on record?
Answer: Its value is “lower cytotoxicity”.

Question: And the “fold increase of sub-G1 cells over control” value (U-937 leukemia cells)?
Answer: The value was ~ 13 fold.

Question: What about the “%G1” value (U-937 leukemia cells) of the same molecule?
Answer: Its value is 35.9 ± 2.1 %.

Question: And the “%G2-M” value (U-937 leukemia cells)?
Answer: Its value is 8.4 ± 0.1 %.

Question: What about the “%S” value (U-937 leukemia cells) of the same molecule?
Answer: The value was 23.6 ± 2.4 %.

Question: And the “%Sub-G1” value (U-937 leukemia cells)?
Answer: The value was 31.6% and 31.6 ± 4.5 %.

Question: What about the cell cycle arrest (U-937 leukemia cells) of the same molecule?
Answer: The cell cycle arrest was “not caused by a significant cell cycle arrest in any phase”.

Question: And the IC50 (SK-MEL-1 cells; 72 h)?
Answer: Its IC50 is 13.8 ± 1.2 µM.

Question: And the IC50 (SK-MEL-1 cells; Homo sapiens, SK-MEL-1, 72 h)?
Answer: The IC50 was about 10 µM.

Question: And the IC50 (NALM-6 cells)?
Answer: The IC50 was 10.8 ± 0.5 µM.

Question: What about the IC50 (NALM-6 cells; Homo sapiens, NALM-6, 72 h) of the same molecule?
Answer: Its IC50 is about 10 µM.
